# Assay results reported in PMC12527922, “Cocaine chemogenetics blunts drug-seeking by synthetic physiology” (Nature, 2025).
# Where “and” joins values, the source holds several entries; their conditions need not be identical. Equal entries are not always repeated.
# Legend:
# [1] = test system: hippocampal neurons expressing GFP; assay: Current-clamp of control cultured hippocampal neurons expressing GFP; assay type: cell-based, rat; conditions: GFP; 3 uM relative to PRE; unlabelled mean line
# [2] = test system: coca-5HT3 in cultured hippocampal neurons; assay: Current-clamp of cultured hippocampal neurons expressing coca-5HT3; assay type: cell-based, rat; conditions: coca-5HT3; coc (3 uM) relative to pre; unlabelled mean line
# [3] = biological target: coca-5HT3 (α7(L141G,G175K,Y210F,Y217F)–5HT3) (Homo sapiens, UniProt P36544, G175K/L141G/Y210F/Y217F); assay: Membrane potential assay, coca-5HT3 in HEK293; conditions: coca-5HT3; for Max normalized AVG: AVG of DRs
# [4] = biological target: T1, unmodified α7–5HT3 (UniProt P23979+P36544, M226I/T225I); assay: Membrane potential assay, unmodified α7–5HT3; assay type: cell-based, human α7 nAChR LBD, mouse 5HT3 IPD; conditions: a7-5Ht3; for Max normalized AVG: AVG of DR 1-3; for Max normalized, single replicate: relative to ACh max of the DR
# T1 construct: expressed in transfected cells; host or cells: HEK293 (ATCC CRL-1573), pcDNA3.1
# [5] = biological target: T2, unmodified α7–GlyR (Homo sapiens, UniProt P23415+P36544); assay: Membrane potential assay, unmodified α7–GlyR; assay type: cell-based; conditions: a7-GlyR
# T2 construct: expressed in transfected cells; host or cells: HEK293 (ATCC CRL-1573), pcDNA3.1
# [6] = biological target: T3, coca-GlyR (α7(L141G,G175K,Y217F)–GlyR) (Homo sapiens, UniProt P23415+P36544, G175K/L141G/Y217F); assay: Membrane potential assay, coca-GlyR in HEK293; assay type: cell-based; conditions: coca-GlyR; for Max normalized AVG: AVG of DRs
# T3 construct: expressed in transfected cells; host or cells: HEK293 (ATCC CRL-1573), pcDNA3.1
# T3 sequence (P36544+P23415 fused P36544:L141G/P36544:G175K/P36544:Y217F): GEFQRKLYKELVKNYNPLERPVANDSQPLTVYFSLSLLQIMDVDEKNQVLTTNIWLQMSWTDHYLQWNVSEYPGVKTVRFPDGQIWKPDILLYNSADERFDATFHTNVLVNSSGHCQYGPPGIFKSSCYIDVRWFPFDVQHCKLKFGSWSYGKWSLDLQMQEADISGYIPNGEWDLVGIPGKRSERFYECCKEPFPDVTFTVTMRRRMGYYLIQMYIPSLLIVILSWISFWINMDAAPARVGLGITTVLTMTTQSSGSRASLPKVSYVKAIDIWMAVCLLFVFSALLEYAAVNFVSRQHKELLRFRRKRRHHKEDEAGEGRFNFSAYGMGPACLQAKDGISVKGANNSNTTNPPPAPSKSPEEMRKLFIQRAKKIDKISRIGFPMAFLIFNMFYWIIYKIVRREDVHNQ
# T1 sequence (P36544+P23979 fused P36544:T225I/P36544:M226I): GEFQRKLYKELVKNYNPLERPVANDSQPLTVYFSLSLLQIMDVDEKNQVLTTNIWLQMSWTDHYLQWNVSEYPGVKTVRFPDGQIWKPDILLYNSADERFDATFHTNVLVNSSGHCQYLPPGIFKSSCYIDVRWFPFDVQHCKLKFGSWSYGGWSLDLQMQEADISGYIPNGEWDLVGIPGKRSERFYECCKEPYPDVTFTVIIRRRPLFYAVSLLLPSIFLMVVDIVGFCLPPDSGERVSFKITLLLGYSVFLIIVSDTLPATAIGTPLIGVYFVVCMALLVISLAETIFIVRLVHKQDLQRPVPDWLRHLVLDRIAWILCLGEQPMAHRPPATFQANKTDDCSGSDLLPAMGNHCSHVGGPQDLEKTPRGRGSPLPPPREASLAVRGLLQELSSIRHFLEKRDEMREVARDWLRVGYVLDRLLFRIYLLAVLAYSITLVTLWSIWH
# Chain of coca-5HT3 (α7(L141G,G175K,Y210F,Y217F)–5HT3) (P36544 23-224 L141G/G175K/Y210F/Y217F): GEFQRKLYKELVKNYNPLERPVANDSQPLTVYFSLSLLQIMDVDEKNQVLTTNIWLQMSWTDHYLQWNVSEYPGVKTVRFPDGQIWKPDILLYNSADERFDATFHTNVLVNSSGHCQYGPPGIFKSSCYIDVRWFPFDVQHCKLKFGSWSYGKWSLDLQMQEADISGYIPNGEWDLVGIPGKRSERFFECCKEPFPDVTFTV
# Chain of coca-5HT3 (α7(L141G,G175K,Y210F,Y217F)–5HT3) (P23979 242-489, further chain): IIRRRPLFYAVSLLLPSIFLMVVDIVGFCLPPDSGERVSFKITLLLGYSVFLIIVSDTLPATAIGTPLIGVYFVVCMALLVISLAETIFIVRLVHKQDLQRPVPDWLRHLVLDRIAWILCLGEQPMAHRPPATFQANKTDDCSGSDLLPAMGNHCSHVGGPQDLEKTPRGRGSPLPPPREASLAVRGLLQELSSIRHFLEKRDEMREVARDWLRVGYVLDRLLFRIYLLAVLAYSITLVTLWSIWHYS
# T2 sequence (P36544+P23415 fused): as the sequence (P36544+P23415 fused P36544:L141G/P36544:G175K/P36544:Y217F) above, with G119L, K153G, F195Y counted along it
structure (smiles),measurement,setting,value
COC(=O)[C@H]1[C@@H](OC(=O)c2ccccc2)C[C@@H]2CC[C@H]1N2C [coc],"Rheobase Normalized, mean of cells",[1],1.094
same,"Rheobase Normalized, mean of cells",[2],0.5604
same,"DR response, single replicate",[3]; [coc] 0.0137174,0.067 and 0.015 and 0.01 and 0.009 and 0.046 and 0.1 and 0.014
same,"Max normalized, single replicate",[3]; [coc] 0.0137174,0.01571 and 0.04202 and 0.03502 and 0.04968 and 0.07513 and 0.01777 and 0.06549
same,Max normalized AVG,[3]; [coc] 0.0137174,0.04297
same,"DR response, single replicate",[3]; [coc] 0.0411523,0.051 and 0.054 and 0.011 and 0.02 and 0.076 and 0.06 and 0.008 and 0.009
same,"Max normalized, single replicate",[3]; [coc] 0.0411523,0.05654 and 0.04622 and 0.07782 and 0.08207 and 0.04508 and 0.01015 and 0.007098 and 0.04985
same,Max normalized AVG,[3]; [coc] 0.0411523,0.04686
same,"DR response, single replicate",[3]; [coc] 0.123457,0.063 and 0.015 and 0.01 and 0.013 (2×) and 0.056 and 0.037 and 0.035
same,"Max normalized, single replicate",[3]; [coc] 0.123457,0.01571 and 0.04202 and 0.05058 and 0.06048 and 0.0278 and 0.04442 and 0.01025 and 0.06158
same,Max normalized AVG,[3]; [coc] 0.123457,0.0391
same,"DR response, single replicate",[3]; [coc] 0.37037,0.098 and 0.161 and 0.012 and 0.019 and 0.144 and 0.109 and 0.122 and 0.014
same,"Max normalized, single replicate",[3]; [coc] 0.37037,0.1686 and 0.05042 and 0.07393 and 0.1555 and 0.08189 and 0.1548 and 0.01104 and 0.0958
same,Max normalized AVG,[3]; [coc] 0.37037,0.099
same,"DR response, single replicate",[3]; [coc] 1.11111,0.363 and 0.54 and 0.108 and 0.033 and 0.699 and 0.66 and 0.506 and 0.355
same,"Max normalized, single replicate",[3]; [coc] 1.11111,0.5654 and 0.4538 and 0.1284 and 0.7549 and 0.4959 and 0.6421 and 0.28 and 0.3548
same,Max normalized AVG,[3]; [coc] 1.11111,0.4594
same,"DR response, single replicate",[3]; [coc] 3.33333,0.825 and 0.861 and 0.191 and 0.144 and 0.926 and 1.093 and 0.788 and 0.762
same,"Max normalized, single replicate",[3]; [coc] 3.33333,0.9016 and 0.8025 and 0.5603 and 1 (2×) and 0.8212 and 0.6009 and 0.8065
same,Max normalized AVG,[3]; [coc] 3.33333,0.8116
same,"DR response, single replicate",[3]; [coc] 10,1.023 and 0.955 and 0.229 and 0.257 and 0.908 and 1.331 and 0.736 and 1.159
same,"Max normalized, single replicate",[3]; [coc] 10,1 (4×) and 0.9622 and 0.9806 and 0.934 and 0.914
same,Max normalized AVG,[3]; [coc] 10,0.9738
same,"DR response, single replicate",[3]; [coc] 30,0.864 and 0.903 and 0.238 and 0.251 and 1.268
same,"Max normalized, single replicate",[3]; [coc] 30,0.9456 and 1 (2×) and 0.9767 and 0.8446
same,Max normalized AVG,[3]; [coc] 30,0.9534
same,max (DR response of the replicate),[3]; largest response of each DR,1.023 and 0.955 and 0.238 and 0.257 and 0.926 and 1.331 and 0.788 and 1.268
same,"DR response, single replicate",[4]; concentration 0.0457247,0.035 and 0.029 and 0.04
same,Max normalized AVG,[4]; concentration 0.0457247,0.03558
same,"Max normalized, single replicate",[4]; concentration 0.0457247,0.02736 and 0.03711 and 0.04227
same,"DR response, single replicate",[4]; concentration 0.137174,0.031 and 0.062 and 0.034
same,Max normalized AVG,[4]; concentration 0.137174,0.04249
same,"Max normalized, single replicate",[4]; concentration 0.137174,0.05849 and 0.03154 and 0.03744
same,"DR response, single replicate",[4]; concentration 0.411523,0.023 and 0.07 and 0.034
same,Max normalized AVG,[4]; concentration 0.411523,0.04179
same,"Max normalized, single replicate",[4]; concentration 0.411523,0.06604 and 0.03154 and 0.02778
same,"DR response, single replicate",[4]; concentration 1.23457,0.031 and 0.038 and 0.043
same,Max normalized AVG,[4]; concentration 1.23457,0.03773
same,"Max normalized, single replicate",[4]; concentration 1.23457,0.03585 and 0.03989 and 0.03744
same,"DR response, single replicate",[4]; concentration 3.7037,0.019 and 0.031 and 0.039
same,Max normalized AVG,[4]; concentration 3.7037,0.02946
same,"Max normalized, single replicate",[4]; concentration 3.7037,0.02925 and 0.03618 and 0.02295
same,"DR response, single replicate",[4]; concentration 11.1111,0.036 and 0.037 and 0.017
same,Max normalized AVG,[4]; concentration 11.1111,0.03138
same,"Max normalized, single replicate",[4]; concentration 11.1111,0.03491 and 0.01577 and 0.04348
same,"DR response, single replicate",[4]; concentration 33.3333,0.037 and 0.071 and 0.05
same,Max normalized AVG,[4]; concentration 33.3333,0.05268
same,"Max normalized, single replicate",[4]; concentration 33.3333,0.06698 and 0.04638 and 0.04469
same,"DR response, single replicate",[4]; concentration 100,0.055 and 0.086 and 0.089
same,Max normalized AVG,[4]; concentration 100,0.07671
same,"Max normalized, single replicate",[4]; concentration 100,0.08113 and 0.08256 and 0.06643
same,"DR response, single replicate",[5]; concentration 0.0457247,0.05 and 0.083 and 0.071
same,"DR response, single replicate",[5]; concentration 0.137174,0.031 and 0.061 and 0.045
same,"DR response, single replicate",[5]; concentration 0.411523,0.036 and 0.075 and 0.045
same,"DR response, single replicate",[5]; concentration 1.23457,0.032 and 0.049 and 0.043
same,"DR response, single replicate",[5]; concentration 3.7037,0.027 and 0.033 and 0.028
same,"DR response, single replicate",[5]; concentration 11.1111,0.032 and 0.038 and 0.034
same,"DR response, single replicate",[5]; concentration 33.3333,0.046 and 0.052 and 0.049
same,"DR response, single replicate",[5]; concentration 100,0.053 and 0.079 (2×)
same,"DR response, single replicate",[6]; [coc] 0.0137174,0.056 and 0.038 and 0.023 and 0.039 and 0.008 and 0.041
same,"Max normalized, single replicate",[6]; [coc] 0.0137174,0.03823 and 0.06336 and 0.05409 and 0.0128 and 0.05758 and 0.03944
same,Max normalized AVG,[6]; [coc] 0.0137174,0.03793
same,"DR response, single replicate",[6]; [coc] 0.0411523,0.06 and 0.037 and 0.017 and 0.078 and 0.025 and 0.015 and 0.049
same,"Max normalized, single replicate",[6]; [coc] 0.0411523,0.03722 and 0.04683 and 0.05159 and 0.03467 and 0.024 and 0.06882 and 0.04225
same,Max normalized AVG,[6]; [coc] 0.0411523,0.04363
same,"DR response, single replicate",[6]; [coc] 0.123457,0.034 (2×) and 0.037 and 0.031 and 0.077 and 0.02 and 0.024
same,"Max normalized, single replicate",[6]; [coc] 0.123457,0.03722 and 0.0854 and 0.05093 and 0.02774 and 0.0384 and 0.04775 and 0.02394
same,Max normalized AVG,[6]; [coc] 0.123457,0.04448
same,"DR response, single replicate",[6]; [coc] 0.37037,0.097 and 0.151 and 0.076 and 0.133 and 0.062 and 0.045 and 0.065
same,"Max normalized, single replicate",[6]; [coc] 0.37037,0.1519 and 0.2094 and 0.08796 and 0.08599 and 0.072 and 0.09129 and 0.06831
same,Max normalized AVG,[6]; [coc] 0.37037,0.1095
same,"DR response, single replicate",[6]; [coc] 1.11111,0.511 and 0.61 and 0.222 and 1.095 and 0.27 and 0.244 and 0.282
same,"Max normalized, single replicate",[6]; [coc] 1.11111,0.6137 and 0.6116 and 0.7242 and 0.3745 and 0.3904 and 0.3961 and 0.3599
same,Max normalized AVG,[6]; [coc] 1.11111,0.4958
same,"DR response, single replicate",[6]; [coc] 3.33333,1.226 and 0.859 and 0.343 and 1.133 and 0.644 and 0.538 and 0.653
same,"Max normalized, single replicate",[6]; [coc] 3.33333,0.8642 and 0.9449 and 0.7493 and 0.8932 and 0.8608 and 0.9171 and 0.8634
same,Max normalized AVG,[6]; [coc] 3.33333,0.8704
same,"DR response, single replicate",[6]; [coc] 10,1.42 and 0.941 and 1.448 and 0.721 and 0.62 and 0.712
same,"Max normalized, single replicate",[6]; [coc] 10,0.9467 and 1 (4×) and 0.9577 and 0.992
same,Max normalized AVG,[6]; [coc] 10,0.9852
same,"DR response, single replicate",[6]; [coc] 30,1.327 and 0.994 and 1.512 and 0.592 and 0.625
same,"Max normalized, single replicate",[6]; [coc] 30,1 (3×) and 0.8211 and 0.9345
same,Max normalized AVG,[6]; [coc] 30,0.9511
same,max (DR response of the replicate),[6]; largest response of each DR,1.42 and 0.994 and 0.363 and 1.512 and 0.721 and 0.625 and 0.712
